Measured values taken from ChEMBL document CHEMBL1155869, “Red light-activated phosphorothioate oligodeoxyribonucleotides” (Bioorg Med Chem Lett, 2008).
Calls of active or inactive are those of the source. The calls are words filed in the database; no cut-off is given here.

Legend:
[1] = Binding affinity to complementary RNA
[2] = Binding affinity to complementary DNA

| Activity [1] | Activity [2] | Compound |
| --- | --- | --- |
| Active | Active | Cc1cn([C@H]2C[C@H](OP(=O)(O)OC[C@H]3O[C@@H](n4ccc(N)nc4=O)[C@H](O)[C@@H]3OP(=O)(O)OC[C@H]3O[C@@H](n4cnc5c(=O)[nH]c(N)nc54)[C@H](O)[C@@H]3OP(=O)(O)OC[C@H]3O[C@@H](n4cnc5c(N)ncnc54)[C@H](O)[C@@H]3O)[C@@H](COP(=O)(O)O[C@H]3[C@@H](O)[C@H](n4ccc(N)nc4=O)O[C@@H]3COP(=O)(O)O[C@H]3[C@@H](O)[C@H](n4cnc5c(=O)[nH]c(N)nc54)O[C@@H]3COP(=O)(O)O[C@H]3[C@@H](O)[C@H](n4ccc(N)nc4=O)O[C@@H]3COP(=O)(O)O[C@H]3[C@@H](O)[C@H](n4cnc5c(N)ncnc54)O[C@@H]3CO)O2)c(=O)[nH]c1=O |
| inactive | inactive | Cc1cn([C@H]2C[C@H](OP(=O)(O)OC[C@H]3O[C@@H](n4ccc(N)nc4=O)[C@H](O)[C@@H]3OP(=O)(O)OC[C@H]3O[C@@H](n4cnc5c(=O)[nH]c(N)nc54)[C@H](O)[C@@H]3OP(=O)(O)OC[C@H]3O[C@@H](n4cnc5c(N)ncnc54)[C@H](O)[C@@H]3OP(=O)(O)OC[C@H]3O[C@@H](n4cnc5c(=O)[nH]c(N)nc54)[C@H](O)[C@@H]3OP(=O)(O)OC[C@H]3O[C@@H](n4ccc(N)nc4=O)[C@H](O)[C@@H]3OP(=O)(O)OC[C@H]3O[C@@H](n4cnc5c(=O)[nH]c(N)nc54)[C@H](O)[C@@H]3OP(=O)(O)OC[C@H]3O[C@@H](n4cc(C)c(=O)[nH]c4=O)C[C@@H]3OP(=O)(O)OC[C@H]3O[C@@H](n4cc(C)c(=O)[nH]c4=O)C[C@@H]3OP(=O)(O)OC[C@H]3O[C@@H](n4ccc(N)nc4=O)[C@H](O)[C@@H]3OP(=O)(O)OC[C@H]3O[C@@H](n4cc(C)c(=O)[nH]c4=O)C[C@@H]3OP(=O)(O)OC[C@H]3O[C@@H](n4ccc(N)nc4=O)[C@H](O)[C@@H]3OCCCS/C=C\SCCCOP(OC[C@H]3O[C@@H](n4cnc5c(N)ncnc54)[C@H](O)[C@@H]3OP(=O)(O)OC[C@H]3O[C@@H](n4ccc(N)nc4=O)[C@H](O)[C@@H]3OP(=O)(O)OC[C@H]3O[C@@H](n4cnc5c(=O)[nH]c(N)nc54)[C@H](O)[C@@H]3OP(=O)(O)OC[C@H]3O[C@@H](n4ccc(N)nc4=O)[C@H](O)[C@@H]3OP(=O)(O)OC[C@H]3O[C@@H](n4cc(C)c(=O)[nH]c4=O)C[C@@H]3OP(=O)(O)OC[C@H]3O[C@@H](n4ccc(N)nc4=O)[C@H](O)[C@@H]3OP(=O)(O)OC[C@H]3O[C@@H](n4cnc5c(=O)[nH]c(N)nc54)[C@H](O)[C@@H]3OP(=O)(O)OC[C@H]3O[C@@H](n4cnc5c(N)ncnc54)[C@H](O)[C@@H]3O)N(C(C)C)C(C)C)[C@@H](CO)O2)c(=O)[nH]c1=O (stereo partly specified) |
| Active | Active | Cc1cn([C@H]2C[C@H](OP(=O)(O)OC[C@H]3O[C@@H](n4ccc(N)nc4=O)[C@H](O)[C@@H]3OP(=O)(O)OC[C@H]3O[C@@H](n4cnc5c(=O)[nH]c(N)nc54)[C@H](O)[C@@H]3OP(=O)(O)OC[C@H]3O[C@@H](n4cnc5c(N)ncnc54)[C@H](O)[C@@H]3OP(=O)(O)OC[C@H]3O[C@@H](n4cnc5c(=O)[nH]c(N)nc54)[C@H](O)[C@@H]3OP(=O)(O)OC[C@H]3O[C@@H](n4ccc(N)nc4=O)[C@H](O)[C@@H]3OP(=O)(O)OC[C@H]3O[C@@H](n4cnc5c(=O)[nH]c(N)nc54)[C@H](O)[C@@H]3OP(=O)(O)OC[C@H]3O[C@@H](n4cc(C)c(=O)[nH]c4=O)C[C@@H]3OP(=O)(O)OC[C@H]3O[C@@H](n4cc(C)c(=O)[nH]c4=O)C[C@@H]3OP(=O)(O)OC[C@H]3O[C@@H](n4ccc(N)nc4=O)[C@H](O)[C@@H]3OP(=O)(O)OC[C@H]3O[C@@H](n4cc(C)c(=O)[nH]c4=O)C[C@@H]3OP(=O)(O)OC[C@H]3O[C@@H](n4ccc(N)nc4=O)[C@H](O)[C@@H]3O)[C@@H](CO)O2)c(=O)[nH]c1=O |
